US20200268832A1, “COMPOSITIONS FOR DELIVERY TO AND TREATMENT OF ATHEROSCLEROTIC PLAQUES” (Sanford Burnham Prebys Medical Discovery Institute, priority 2015, published 2020)
“Also recorded” adds a separate entry of the source.

What was measured:
b1b2 domain of NRP-1 = target: T1, b1b2 domain of NRP-1 (Homo sapiens, UniProt O14786); test: Fluorescence polarization displacement of FAM-RPARPAR from NRP-1; type: binding; settings: specificity assay, up to 100 μM
T1 sequence (O14786 273-586 limits assumed): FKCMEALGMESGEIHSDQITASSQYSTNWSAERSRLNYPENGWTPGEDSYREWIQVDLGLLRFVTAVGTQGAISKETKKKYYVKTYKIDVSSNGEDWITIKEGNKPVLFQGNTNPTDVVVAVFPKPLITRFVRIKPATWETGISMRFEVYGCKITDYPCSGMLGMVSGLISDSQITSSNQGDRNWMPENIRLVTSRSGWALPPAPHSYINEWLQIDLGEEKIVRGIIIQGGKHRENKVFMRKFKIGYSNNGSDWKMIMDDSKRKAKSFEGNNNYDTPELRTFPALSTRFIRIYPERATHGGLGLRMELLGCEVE
Method: Results of the high-throughput screen were confirmed in dose response tests. 8.25 μM to 100 μM dilutions of the compounds that displaced FAM-peptide from p32 were used in competition with FAM-peptide as described in previous section. Specificity of the hit compounds was verified by examining their binding to a different protein, b1b2 domain of NRP-1 (Vander Kooi et al., Proc. Natl. Acad. Sci. U.S.A., 10.1073/pnas.0700043104). Experimental method for NRP-1 b1b2 was developed and validated similarly to p32, using FAM-RPARPAR peptide as a known peptide ligand for NRP-1. The displacement of FAM-RPARPAR from NRP-1 protein by the hit compounds was studied in 384-well format, as described above.

[1] = tested on: orthotopic MCF10Ca1A breast tumors; test: In vivo homing of iron oxide nanoworms in tumor-bearing mice; settings: IV, 7.5 mg Fe/kg, 5-6 hours circulation
Method: FIG. 10 is a graph of nanoparticles functionalized with compound #008 homing to tumors and atherosclerotic plaques. Orthotopic MCF10Ca1Abreast tumors from mice injected with iron oxide […] (NWs) (7.5 mg/kg of Fe) coated with FAM-#008 or with an inert peptide (control). The NWs were allowed to circulate for 5 hours, the mice were perfused through the heart with PBS and tumors, and organs were collected. Quantification of fluorescence carried out with ImageJ software. Multiple sections from three tumors were analyzed (P<0.0001, Student's t-test).
Animal experimentation was performed according to the procedures approved by the Animal Research Committee at the Sanford-Burnham Medical Research Institute, San Diego. […] FAM labeled #4014008-NWs were injected into the tail vein (7.5 mg of iron per kilogram of body weight), the animals were euthanized 5-6 hours after the injection by cardiac perfusion with PBS under anesthesia, and organs were dissected and analyzed for particle homing. […]
For immunostaining, […] tissue sections were first incubated for 1 hour at room temperature with 10% serum from the species in which the secondary antibody was generated, followed by incubation with the primary antibody overnight at 4° C. […] The primary antibodies were detected with Alexa 594 goat anti-rat and 594 goat anti-rabbit secondary antibodies (1:1000; Molecular Probes). […]

atherosclerotic plaques = test: Plaque homing of FAM-labeled #008-NWs in atherosclerotic mouse; type: in vivo; settings: 1 mg/ml, 200 μl, IV, two hours circulation; listed as #008
plaque macrophages = test: Cytotoxicity to plaque macrophages ex vivo; type: cell-based
From the text: Two of the hits from the screen passed all the specificity tests, and one of these has been characterized to some extent in vivo (FIG. 10). […] Thus, the discovered compounds, especially #008 and #7933989, served as a starting point for other compounds with affinity for p32. Orally available compounds provide significant new opportunities in prevention and treatment of atherosclerosis.

- effect on RPARPAR peptide binding to NRP-1 (b1b2 domain of NRP-1): no effect
Structure (SMILES): Cc1cnccc1NCCN [Compound 4014008, N-(3-methylpyridin-4-yl)ethane-1,2-diamine]
- homing to MCF10Ca1A tumors [1]: specifically home to tumors
- nanoparticle homing/accumulation in plaques (atherosclerotic plaques): specifically home; also recorded: directs nanoparticle accumulation in plaques
- cytotoxicity to plaque macrophages (plaque macrophages): cytotoxic to plaque macrophages
